Results published in patent US7396682B2, “Method for cell adhesion and wound healing” (Regen Biotech, Inc., priority 2000, dated 2008).
“Also recorded” adds a separate entry of the source.

Tests used:
HCE cells = assay: Inhibition assay of HCE cell adhesion using matrix peptides and reagents; assay type: cell-based, human; settings: HCE cells preincubated 30 min with reagent; for inhibition of cell adhesion to fibronectin: dishes coated with 10 μg/ml fibronectin; for inhibition of cell adhesion to βig-h3: dishes coated with 10 μg/ml βig-h3
Method: In order to identify cell surface receptors involved in the cell adhesion activity of βig-h3 protein, an inhibition assay was performed using various reagents.
Initially, plastic culture dishes were coated with 10 μg/ml fibronectin, βigh3-WT or βigh3-ΔRGD. HCE cells were preincubated for 30 min in media containing 5 mM EDTA, 100 μg/ml βigh3-WT, 100 μg/ml βigh3-ΔRGD, 1 mM RGD, 1 mM RGE or 100 μg/ml fibronectin, or none of them, and then assayed for cell adhesion as in Example 1.

[1] = test system: Human corneal epithelial (HCE) cells; assay: HCE cell adhesion and spreading assay on protein-coated plates; assay type: cell-based; settings: HCE cells on coated recombinant protein
Method: Human corneal epithelial (HCE) cells used in this assay were cultured in DMEM ([…], Gibco BRL) supplemented with 15% fetal bovine serum, Gentamicin (40 μg/ml), insulin (5 μg/ml), cholera toxin (0.1 μg/ml) and human epidermal growth factor (hEGF) at 37° C. in 5% CO2.
The cell adhesion assay was performed as follows. First, the recombinant βig-h3 proteins or other extracellular matrix proteins were let to adhere to the bottoms of 96-well microculture plates (Falcon) by incubation at 37° C. for 1 hour and blocked with PBS containing 0.2% BSA. The coated extracellular matrix proteins were human plasma vitronectin (Promega), purified human plasma fibronectin (pFN), chicken collagen types I and II (Chemicon International Inc.), bovine collagen types IV and VI (Chemicon), mouse laminin (Chemicon), and bovine serum albumin (BSA) (Sigma). Cells were trypsinized and suspended in the culture media at a density of 2×10^5 cells/ml. 0.1 ml of the cell suspension was added to each well of the plates coated with the recombinant proteins.
Following incubation at 37° C. for 1 hour, unattached cells were removed by rinsing with PBS. Attached cells were incubated for 1 hour at 37° C. in 50 mM citrate buffer, pH 5.0, containing 3.75 mM p-nitrophenol-N-acetyl 1-β-D-glycosaminide as a hexosaminidase substrate and 0.25% Triton X-100, followed by the addition of 50 mM glycine buffer, pH 10.4, containing 5 mM EDTA to block the enzyme activity. A measurement was made of absorbance at 405 nm in a Multiskan MCC/340 microplate reader.
To determine cell area as an index for cell adhesion activity, 4×10^4 cells were applied to substrates in 48-well culture plates. The attached cells were fixed weith 8% glutaraldehyde (Sigma) and then stained with 0.25% Crystal Violet (Sigma) in 20% methanol. Measurement of cell areas was performed by Image-Pro plus software (Media Cybernetics). Experiments were repeated in triplicate with 200 or 300 measurements per site for each experiment. Data is reported as the mean area at specific time points±standard error of mean.

K562 cells = assay: K562 cell adhesion to coated proteins (hexosaminidase analysis); assay type: cell-based; settings: 1 hour
Method: For another control experiment, K562 cells, known to express α5, but not α3 integrin, were used. K562 cells were inoculated onto plates coated with βigh3-WT, fibronectin, laminin, or type I collagen and incubated for 1 hour, followed by the hexosaminidase analysis.

## O=C(O)CN(CCN(CC(=O)O)CC(=O)O)CC(=O)O [EDTA]
HCE cells
  inhibition of cell adhesion to fibronectin: significantly inhibited
  inhibition of cell adhesion to βig-h3: significantly inhibited

## O=C(O)CN(CCOCCOCCN(CC(=O)O)CC(=O)O)CC(=O)O [EGTA]
HCE cells
  inhibition of cell adhesion to fibronectin: partially inhibited
  inhibition of cell adhesion to βig-h3: partially inhibited

## RGD peptide: Arg-Gly-Asp peptide used at 1 mM in inhibition assay
HCE cells
  inhibition of cell adhesion to fibronectin: significantly inhibited
  inhibition of cell adhesion to βig-h3: significantly inhibited

## RGE peptide: RGE peptide used at 1 mM in inhibition assay
HCE cells
  inhibition of cell adhesion to βig-h3: not inhibited

B1: βig-h3 D-II: recombinant polypeptide, 2nd fas-1 domain of βig-h3, amino acids 237-377 (SEQ ID NO:24) (protein)
chain: STITNNIQQIIEIEDTFETLRAAVAASGLNTMLEGNGQYTLLAPTNEAFEKIPSETLNRILGDPEALRDLLNNHILKSAMCAEAIVAGLSVETLEGTTLEVGCSGDMLTINGKAIISNKDILATNGVIHYIDELLIPDSAK
modifications: left off: small tags and cut ends
[1]
  HCE cell adhesion activity: equally active compared to the wild type βig-h3; also recorded: high cell attachment activity

B2: vitronectin: human plasma vitronectin (Promega), coated extracellular matrix protein (protein)
chain: DQESCKGRCTEGFNVDKKCQCDELCSYYQSCCTDYTAECKPQVTRGDVFTMPEDEYTVYDDGEEKNNATVHEQVGGPSLTSDLQAQSKGNPEQTPVLKPEEEAPAPEVGASKPEGIDSRPETLHPGRPQPPAEEELCSGKPFDAFTDLKNGSLFAFRGQYCYELDEKAVRPGYPKLIRDVWGIEGPIDAAFTRINCQGKTYLFKGSQYWRFEDGVLDPDYPRNISDGFDGIPDNVDAALALPAHSYSGRERVYFFKGKQYWEYQFQHQPSQEECEGSSLSAVFEHFAMMQRDSWEDIFELLFWGRTSAGTRQPQFISRDWHGVPGQVDAAMAGRIYISGMAPRPSLAKKQRFRHRNRKGYRSQRGHSRGRNQNSRRPSRATWLSLFSSEESNLGANNYDDYRMDWLVPATCEPIQSVFFFSGDKYYRVNLRTRRVDTVDPPYPRSIAQYWLGCPAPGHL
K562 cells
  adhesion of K562 cells to coated protein: adhered
